The text below walks through data of patent US11186588B2 (AYUMI PHARMACEUTICAL CORPORATION, priority 2017, dated 2021).

SMILES strings stand for the structures.

Experiment [1] has as its target Recombinant BRD4 (44-168) protein (Homo sapiens (Human), UniProt O60885). Briefly: BRD4-H4KAc4 binding assay (amplified luminescence proximity homogeneous assay, AlphaScreen). Particulars: 10 uM. The procedure, abridged: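 His/FLAG-tagged BRD4 (44-168) and biotinylated tetra-acetylated H4 peptide, each added as 250 nM solutions, incubated with compound 60 min at room temperature in the dark, then AlphaScreen beads 60 min. Emission 520-620 nm at 680 nm excitation, duplicates; % inhibition from blank- and DMSO-corrected signal.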

The next experiment has as its system NF-κB. Briefly: NF-κB reporter gene assay (TNF-α stimulated A549/NF-κB-luc cells). It counts as cell-based. Particulars: Homo sapiens, TNF-α stimulation. As to the method:
In order to evaluate NF-κB inhibitory activity of the present compounds, NF-κB reporter gene assay was carried out. The specific method is described below.
Gene recombinant human TNF-α (available from R&D systems, Cat No. 210-TA) was dissolved in D-PBS(−) (available from Wako Pure Chemical Industries, Ltd., Cat No. 293-72601) to prepare 100 μg/mL of TNF-α solution stock solution. 100 μg/mL of the TNF-α solution stock solution was diluted with the culture medium to prepare 10 ng/mL of TNF-α solution.
A549/NF-κB-luc cells (available from Panomics, Cat No. LR0051) were prepared at 375,000 cells/mL in the culture medium. The 375,000 cells/mL A549/NF-κB-luc cell suspension was seeded at 80 μL each on a white 96-well plate (available from Greiner, Cat No. 655073). One hour after seeding the cells, 10 μL of 2% DMSO solution (control) and each compound solution in each concentration were added to each well of the 96-well plate. One hour after the addition of each compound solution, 10 ng/mL of the TNF-α solution (10 μL) was added to each well of the 96-well plate. Three hours after the addition of 10 ng/mL of the TNF-α solution, 100 μL of Steady-Glo reagent (available from Promega, Cat No. E2510) was added to each well of the 96-well plate. After 30 to 90 minutes of the addition of the Steady-Glo reagent, the luminescence intensity of each well was detected by EnVision multilabel counter (available from PerkinElmer).
NF-κB inhibition rate (%) was calculated by the following equation using Microsoft EXCEL 2010. NF-κB inhibition rate (%)=100−{(luminescence intensity average value of each compound added well)−(average value of luminescence intensity of blank well))/(average value of luminescence intensity of control well)−(average value of luminescence intensity of blank well)}×100 In addition, IC50 values were calculated from the calculated NF-κB inhibition rate (%) using curve fitting software XLfit (available from IDBS).
A general note: Reporter assays use an easily measured gene product as a stand-in for the process of interest.

On to `Cc1sc2c(c1C)C(c1ccc(Cl)cc1)=NN(Cc1cccc(N(C)C)c1)c1nnc(C)n1-2` [Example 55, 3-((4-(4-chlorophenyl)-2,3,9-trimethyl-6H-thieno[2,3-e][1,2,4]triazolo[3,4-c][1,2,4]triazepin-6-yl)methyl)-N,N-dimethylaniline], for which the inhibition (commonly the percentage by which the read-out fell short of the control) at 10 µM in experiment [1] was found to be 100%. For the same compound, the IC50 – broadly, the concentration that gives 50% inhibition – in the experiment with NF-κB stood at 2760 nM.

As for `CC(=O)Nc1cc(CN2N=C(c3ccc(Cl)cc3)c3c(sc(C)c3C)-n3c(C)nnc32)ccn1` [Example 56, N-(4-((4-(4-chlorophenyl)-2,3,9-trimethyl-6H-thieno[2,3-e][1,2,4]triazolo[3,4-c][1,2,4]triazepin-6-yl)methyl)pyridin-2-yl)acetamide], in experiment [1], the inhibition at 10 µM worked out at 100%. The same compound had an IC50 in the experiment with NF-κB of 942 nM.

Consider `Cc1sc2c(c1C)C(c1ccc(Cl)cc1)=NN(Cc1ccnc(N)c1)c1nnc(C)n1-2` [Example 57, 4-((4-(4-chlorophenyl)-2,3,9-trimethyl-6H-thieno[2,3-e][1,2,4]triazolo[3,4-c][1,2,4]triazepin-6-yl)methyl)pyridin-2-amine], for which the inhibition at 10 µM in experiment [1] was found to be 100%. This compound also displayed an IC50 in the experiment on NF-κB of 558 nM.

For the compound `COc1ccc(CN2N=C(c3ccc(Cl)cc3)c3ccsc3-n3c(C)nnc32)cc1` [Example 58, 4-(4-chlorophenyl)-6-(4-methoxybenzyl)-9-methyl-6H-thieno[2,3-e][1,2,4]triazolo[3,4-c][1,2,4]triazepine], the inhibition at 10 µM in experiment [1] was 100%. The compound further gave an IC50 in the experiment on NF-κB of 728 nM.

Regarding `Cc1nnc2n1-c1sccc1C(c1ccc(Cl)cc1)=NN2Cc1ccccc1` [Example 60, 6-benzyl-4-(4-chlorophenyl)-9-methyl-6H-thieno[2,3-e][1,2,4]triazolo[3,4-c][1,2,4]triaz epine], the inhibition at 10 µM in experiment [1] was determined as 100%. In the experiment on NF-κB, the IC50 was 1690 nM.

On to `Cc1nnc2n1-c1sccc1C(c1ccc(Cl)cc1)=NN2Cc1cccnc1` [Example 61, 4-(4-chlorophenyl)-9-methyl-6-(pyridin-3-ylmethyl)-6H-thieno[2,3-e][1,2,4]triazolo[3,4-c][1,2,4]triazepine], for which, in experiment [1], the inhibition at 10 µM amounted to 100%. The compound further registered an IC50 with NF-κB of 377 nM.

With `Cc1nnc2n1-c1sccc1C(c1ccc(Cl)cc1)=NN2Cc1ccncc1` [Example 63, 4-(4-chlorophenyl)-9-methyl-6-(pyridin-4-ylmethyl)-6H-thieno[2,3-e][1,2,4]triazolo[3,4-c][1,2,4]triazepine], the inhibition at 10 µM in experiment [1] was 100%. In the experiment on NF-κB, this compound showed an IC50 of 5240 nM.

Take `COc1cccc(CN2N=C(c3ccc(Cl)cc3)c3ccsc3-n3c(C)nnc32)c1` [Example 64, 4-(4-chlorophenyl)-6-(3-methoxybenzyl)-9-methyl-6H-thieno[2,3-e][1,2,4]triazolo[3,4-c][1,2,4]triazepine]: in experiment [1], the inhibition at 10 µM amounted to 100%. The compound also yielded an IC50 in the experiment with NF-κB of 5490 nM.

As for `COc1ccc(CN2N=C(c3ccc(Cl)cc3)c3cc(C)sc3-n3c(C)nnc32)cc1` [Example 65, 4-(4-chlorophenyl)-6-(4-methoxybenzyl)-2,9-dimethyl-6H-thieno[2,3-e][1,2,4]triazolo[3,4-c][1,2,4]triazepine], the inhibition at 10 µM in experiment [1] stood at 100%. The same compound yielded an IC50 in the experiment with NF-κB of 896 nM.

Consider `Cc1sc2c(c1C)C(c1ccc([N+](=O)[O-])cc1)=NN(Cc1cccnc1)c1nnc(C)n1-2` [Example 70, 2,3,9-trimethyl-4-(4-nitrophenyl)-6-(pyridin-3-ylmethyl)-6H-thieno[2,3-e][1,2,4]triazolo[3,4-c][1,2,4]triazepine], for which, in experiment [1], the inhibition at 10 µM is 100%. This compound returned an IC50 in the experiment with NF-κB of 1830 nM.

Turning to `Cc1sc2c(c1C)C(c1cccc(Cl)c1)=NN(Cc1cccnc1)c1nnc(C)n1-2` [Example 73, 4-(3-chlorophenyl)-2,3,9-trimethyl-6-(pyridin-3-ylmethyl)-6H-thieno[2,3-e][1,2,4]triazolo[3,4-c][1,2,4]triazepine], the inhibition at 10 µM in experiment [1] turned out to be 100%. Also, half-maximal inhibition with NF-κB (IC50) was put at 246 nM.

As for `COc1ccccc1C1=NN(Cc2cccnc2)c2nnc(C)n2-c2sc(C)c(C)c21` [Example 74, 4-(2-methoxyphenyl)-2,3,9-trimethyl-6-(pyridin-3-ylmethyl)-6H-thieno[2,3-e][1,2,4]triazolo[3,4-c][1,2,4]triazepine], the inhibition at 10 µM in experiment [1] stood at 100%. In addition, the IC50 with NF-κB was 2140 nM.

Consider `COc1cccc(C2=NN(Cc3cccnc3)c3nnc(C)n3-c3sc(C)c(C)c32)c1` [Example 75, 4-(3-methoxyphenyl)-2,3,9-trimethyl-6-(pyridin-3-ylmethyl)-6H-thieno[2,3-e][1,2,4]triazolo[3,4-c][1,2,4]triazepine], for which the inhibition at 10 µM in experiment [1] worked out at 100%. The compound also returned an IC50 in the experiment with NF-κB of 1930 nM.

On to `Cc1sc2c(c1C)C(c1ccc(Cl)cc1)=NN(Cc1cccnc1C#N)c1nnc(C)n1-2` [Example 77, 3-((4-(4-chlorophenyl)-2,3,9-trimethyl-6H-thieno[2,3-e][1,2,4]triazolo[3,4-c][1,2,4]triazepin-6-yl)methyl)picolinonitrile], for which the inhibition at 10 µM in experiment [1] was 100%. The compound also registered a half-inhibitory concentration (IC50) with NF-κB of 1950 nM.

Consider `Cc1sc2c(c1C)C(c1ccc(Cl)cc1)=NN(Cc1cccnc1C(F)(F)F)c1nnc(C)n1-2` [Example 78, 4-(4-chlorophenyl)-2,3,9-trimethyl-6-((2-(trifluoromethyl)pyridin-3-yl)methyl)-6H-thieno[2,3-e][1,2,4]triazolo[3,4-c][1,2,4]triazepine], for which the inhibition at 10 µM in experiment [1] came out at 100%. The same compound yielded an IC50 in the experiment with NF-κB of 1260 nM.

`Cc1sc2c(c1C)C(c1ccc(Cl)cc1)=NN(Cc1cccnc1Br)c1nnc(C)n1-2` [Example 79, 6-((2-bromopyridin-3-yl)methyl)-4-(4-chlorophenyl)-2,3,9-trimethyl-6H-thieno[2,3-e][1,2,4]triazolo[3,4-c][1,2,4]triazepine]: in experiment [1], the inhibition at 10 µM worked out at 100%. This compound returned an IC50 in the experiment on NF-κB of 742 nM.

Turning to `Cc1sc2c(c1C)C(c1ccc(Cl)cc1)=NN(Cc1cccnc1[N+](=O)[O-])c1nnc(C)n1-2` [Example 80, 4-(4-chlorophenyl)-2,3,9-trimethyl-6-((2-nitropyridin-3-yl)methyl)-6H-thieno[2,3-e][1,2,4]triazolo[3,4-c][1,2,4]triazepine], in experiment [1], the inhibition at 10 µM was determined as 100%. The compound also gave an IC50 in the experiment on NF-κB of 1110 nM.

For the compound `Cc1sc2c(c1C)C(c1ccc(Cl)cc1)=NN(Cc1cccnc1N)c1nnc(C)n1-2` [Example 81, 3-((4-(4-chlorophenyl)-2,3,9-trimethyl-6H-thieno[2,3-e][1,2,4]triazolo[3,4-c][1,2,4]triazepin-6-yl)methyl)pyridin-2-amine], the inhibition at 10 µM in experiment [1] came to 100%. Also, the IC50 with NF-κB came out at 47.2 nM.

In the case of `CC(=O)Nc1ncccc1CN1N=C(c2ccc(Cl)cc2)c2c(sc(C)c2C)-n2c(C)nnc21` [Example 82, N-(3-((4-(4-chlorophenyl)-2,3,9-trimethyl-6H-thieno[2,3-e][1,2,4]triazolo[3,4-c][1,2,4]triazepin-6-yl)methyl)pyridin-2-yl)acetamide], the inhibition at 10 µM in experiment [1] turned out to be 100%. In the experiment with NF-κB, this compound returned an IC50 of 135 nM.

As for `COC(=O)c1ncccc1CN1N=C(c2ccc(Cl)cc2)c2c(sc(C)c2C)-n2c(C)nnc21` [Example 83, methyl 3-((4-(4-chlorophenyl)-2,3,9-trimethyl-6H-thieno[2,3-e][1,2,4]triazolo[3,4-c][1,2,4]triazepin-6-yl)methyl)picolinate], the inhibition at 10 µM in experiment [1] was 100%. The same compound had an IC50 in the experiment with NF-κB of 2820 nM.

For the compound `Cc1sc2c(c1C)C(c1ccc(Cl)cc1)=NN(Cc1cccnc1CO)c1nnc(C)n1-2` [Example 86, (3-((4-(4-chlorophenyl)-2,3,9-trimethyl-6H-thieno[2,3-e][1,2,4]triazolo[3,4-c][1,2,4]triazepin-6-yl)methyl)pyridin-2-yl)methanol], the inhibition at 10 µM in experiment [1] is 100%. In the experiment with NF-κB, this compound gave an IC50 of 95.3 nM.

Take `CCOc1ncccc1CN1N=C(c2ccc(Cl)cc2)c2c(sc(C)c2C)-n2c(C)nnc21` [Example 87, 4-(4-chlorophenyl)-6-((2-ethoxypyridin-3-yl)methyl)-2,3,9-trimethyl-6H-thieno[2,3-e][1,2,4]triazolo[3,4-c][1,2,4]triazepine]: in experiment [1], the inhibition at 10 µM was 100%. The half-inhibitory concentration (IC50) with NF-κB turned out to be 1390 nM.

As to `Cc1sc2c(c1C)C(c1ccc(Cl)cc1)=NN(Cc1cc(F)cnc1F)c1nnc(C)n1-2` [Example 88, 4-(4-chlorophenyl)-6-((2,5-difluoropyridin-3-yl)methyl)-2,3,9-trimethyl-6H-thieno[2,3-e][1,2,4]triazolo[3,4-c][1,2,4]triazepine], the inhibition at 10 µM in experiment [1] worked out at 100%. In addition, half-maximal inhibition in the experiment on NF-κB (IC50) was put at 631 nM.
